Source: patent US9475773B2, “NK3 receptor antagonist compound (NK3RA) for use in a method for the treatment of polycystic ovary syndrome (PCOS)” (ASTRAZENECA AB, priority 2013, dated 2016)
Read-outs that look alike come from different tables or passages of the source.

Assays:
dogs [1] = test: Single and repeat-dose toxicology in dogs; format: in vivo, dog
From the text: In female dogs, ovarian uterine weights were reduced in treated animals. […] Thyroid weights were increased in the high dose group females. No other target organs have been identified.
Epididymides and prostate glands had gained maturity, but aspermia was present in all dogs and testicular immaturity remained. […]

serum testosterone = test: SAD and MAD studies, serum testosterone in healthy male volunteers; format: in vivo, human
dogs [2] = test: Dog electrocardiographic (ECG) telemetry study; format: in vivo
rats [3] = test: Respiratory parameters in rats; format: in vivo, rat; settings: up to 2000 mg/kg (4400 μmol/kg)
hERG channel = hERG channel (Homo sapiens, UniProt Q12809); test: hERG channel in vitro (tail current); format: cell-based
[4] = Pharmacokinetics and metabolism in dogs; format: in vivo; settings: dog
Procedure: At low doses, the estimated Clp of The NK3RA was moderate in rat (8.3 ml/min/kg) and low in the dog (1.2 ml/min/kg). Bioavailability (F) was ˜100% in both species indicating extensive absorption in these species. The volume of distribution (Vz) was moderate (1.6 L·kg in rat and 0.81 L/kg in dog) and consistent with the physico-chemical properties of the compound. […] The NK3RA exposure decreased after multiple dosing in rats, indicating either changes in absorption or induction of The NK3RA metabolism, or both, after multiple dosing. […] T1/2 values ranged from 5.6 hours to 14.3 hours at the end of dosing for dogs dosed at 1000 mg/kg/day (2180 μmol/kg/day). There were no consistent sex differences observed in the exposure to NK3RA in these 2 species.
Following oral administration of The NK3RA in the rat, a pharmacologically active ketone metabolite appeared rapidly in plasma but slowly reached maximum concentration levels in all animals. […] T1/2 values ranged from 8.51 hours to 13.8 hours on Day 27 and Day 28 for dogs dosed with 1000 mg/kg/day (2180 μmol/kg/day) of the NK3RA. There were no consistent sex differences observed in the exposure to the metabolite in these 2 species.

guinea pig heart = test: Monophasic action potential of the guinea pig heart; format: in vivo; settings: IV doses up to 46 mg/kg (100 μmol/kg)
rats [5] = test: Single and repeat-dose toxicology in rats; format: in vivo, rat
Procedure: Relative epididymis weight was lower at 2000 mg/kg/day.

[6] = rat 3 month study, 2000 mg/kg/day

Chain of hERG channel (Q12809 whole entry): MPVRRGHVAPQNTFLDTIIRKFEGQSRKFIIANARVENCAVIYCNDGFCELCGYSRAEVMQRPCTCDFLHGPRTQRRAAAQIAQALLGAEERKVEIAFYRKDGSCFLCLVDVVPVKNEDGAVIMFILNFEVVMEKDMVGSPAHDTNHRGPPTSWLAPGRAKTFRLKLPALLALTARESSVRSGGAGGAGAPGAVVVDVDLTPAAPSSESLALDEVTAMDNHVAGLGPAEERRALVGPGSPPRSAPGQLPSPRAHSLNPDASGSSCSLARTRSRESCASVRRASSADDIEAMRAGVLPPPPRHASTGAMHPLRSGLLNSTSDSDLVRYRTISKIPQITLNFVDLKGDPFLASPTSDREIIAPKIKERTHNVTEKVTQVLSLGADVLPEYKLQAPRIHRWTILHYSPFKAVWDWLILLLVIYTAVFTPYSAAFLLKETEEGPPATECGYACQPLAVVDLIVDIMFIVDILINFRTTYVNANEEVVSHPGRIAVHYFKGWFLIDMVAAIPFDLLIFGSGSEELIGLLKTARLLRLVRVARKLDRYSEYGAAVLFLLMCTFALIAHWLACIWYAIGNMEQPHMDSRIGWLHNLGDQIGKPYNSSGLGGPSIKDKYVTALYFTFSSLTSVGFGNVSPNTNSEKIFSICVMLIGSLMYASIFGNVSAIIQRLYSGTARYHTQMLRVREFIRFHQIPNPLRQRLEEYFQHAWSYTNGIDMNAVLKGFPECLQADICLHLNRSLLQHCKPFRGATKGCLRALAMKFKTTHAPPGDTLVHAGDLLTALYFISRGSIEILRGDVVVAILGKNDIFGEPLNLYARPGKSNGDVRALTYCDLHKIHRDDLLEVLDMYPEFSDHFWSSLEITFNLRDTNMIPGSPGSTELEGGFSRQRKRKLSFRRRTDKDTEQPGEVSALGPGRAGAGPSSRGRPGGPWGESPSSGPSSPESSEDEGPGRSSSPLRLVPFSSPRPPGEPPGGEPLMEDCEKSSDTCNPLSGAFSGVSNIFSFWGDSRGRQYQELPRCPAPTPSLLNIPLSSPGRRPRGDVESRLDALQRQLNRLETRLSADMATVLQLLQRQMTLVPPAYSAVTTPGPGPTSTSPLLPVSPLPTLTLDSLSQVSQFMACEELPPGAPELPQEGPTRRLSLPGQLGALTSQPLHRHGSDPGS

SMILES: CC[C@H](NC(=O)c1c(NS(C)(=O)=O)c(-c2ccccc2)nc2ccccc12)c1ccccc1 [NK3RA, 3-(methanesulfonamido)-2-phenyl-N-[(1S)-1-phenylpropyl]quinoline-4-carboxamide]
- NOEL (testis, epididymis and prostate weights) (dogs [1]; dog): no NOEL was established
- plasma testosterone levels throughout the study (dogs [1]; dog): virtually totally suppressed
- testes weights following the recovery period (dogs [1]; dog): only partially returned to control values
- time after dosing by which plasma testosterone was very low (dogs [1]; dog): ≤ 4 h
- hepatobiliary toxicity (dogs [1]; dogs): hepatobiliary toxicity in one high dose male
- thyroid weights (dogs [1]; dogs, high dose group females): increased
- liver weights (dogs [1]; dogs, mid and high doses): Increased
- tolerability, multiple dosing for three month (dogs [1]; dogs, up to 1000 mg/kg/day): well tolerated
- tolerability, single dosing (dogs [1]; dogs, up to the limit dose of 2000 mg/kg): well tolerated
- female reproductive findings, 3-month study (dogs [1]; female dogs): reductions in ovarian and uterine weights and an increased incidence of anestrus
- ovarian uterine weights (dogs [1]; female dogs): reduced
- recovery of female reproductive findings (dogs [1]; female dogs, following 3 months off-dose): complete recovery
- target organs in males (dogs [1]; male dogs): the testis, epididymis, and prostate were target organs
- serum testosterone (serum testosterone; healthy male volunteers, SAD 1-80 mg, MAD 5 mg QD to 30 mg BID for up to 6 days): dose dependent reduction in serum testosterone
- durability of total testosterone reduction (serum testosterone; male volunteers and male schizophrenia patients): reductions in total testosterone levels durable up to 28 days
- effect on blood pressure (dogs [2]): no effect
- other ECG parameters including QTc interval duration (dogs [2]): No other ECG parameter, including QTc interval duration, was affected
- reduction in heart rate (dogs [2]; highest dose tested 2000 mg/kg orally, transient, dose-related): up to 29%
- respiratory parameters (rats [3]): did not affect any respiratory parameters
- inhibition at 97 µM (hERG channel; human, 97 μM): 25%
- activity at the hERG channel (hERG channel; in vitro): only weakly active
- accumulation after 28-day repeat dosing regimen [4]: no accumulation or reduction
- rate of absorption ([4]; oral administration): more rapidly absorbed
- half-life ([4]; plasma, oral, dogs dosed at 1000 mg/kg/day (2180 μmol/kg/day), read-out: T1/2 at the end of dosing): 5.6 to 14.3 h
- bioavailability ([4]; plasma, oral, read-out: Bioavailability (F)): ~100%
- half-life ([4]; plasma, read-out: elimination half-life (T½) (converted)): 9.5 h
- Vd ([4]; plasma, read-out: volume of distribution (Vz)): 0.81 L/kg
- clearance ([4]; plasma, low doses, estimated, read-out: Clp): 1.2 mL/min/kg
- effect on monophasic action potential (guinea pig heart): without effect
- histological changes (rats [5]; rat 3 month study): no NK3RA-related histological changes
- absolute testis weight (rats [5]; [6]): lower
- relative epididymis weight (rats [5]; [6]): lower
- relative testis weight (rats [5]; rat 3 month study, 200 and 2000 mg/kg/day (dose-related)): lower than controls
- findings at the highest doses (rats [5]; rats): increased liver weights with no histological correlate
- findings in the female reproductive system, repeat-dose toxicology studies (rats [5]; rats): no findings in the female reproductive system
- tolerability, multiple dosing for three month (rats [5]; rats, up to 2000 mg/kg/day): well tolerated
- tolerability, single dosing (rats [5]; rats, up to the limit dose of 2000 mg/kg): well tolerated
